Source: US20080096894A1, “Anti-Bacterial Compounds” (ASTON UNIVERSITY, priority 2005, published 2008)
Converted amounts (≈) assume the structure as drawn.

Legend:
Assay in all cases: MIC, agar dilution, multipoint inoculator
S. aureus = format: cell-based, Staphylococcus aureus; details: upper value of MIC reading
Procedure, shortened: (§1)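 Compounds were serially incorporated into Mueller Hinton agar, then each strain was spotted by multipoint inoculator at 10^4 colony forming units per spot. MIC was determined from the dilution series.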

P. auriginosa = format: cell-based, Pseudomonas aeruginosa; details: P. auriginosa NCTC 6749; upper value of MIC reading
Experimental: (§2) This activity was measured using a multipoint inoculator method as follows. The MIC for each compound was measured using an agar dilution method (Onda, H., et al., Int. J. Antimicrob. Agents. 18, 263 (2001)) (Mueller Hinton agar) by means of a multipoint inoculator delivering 10^4 colony forming units per spot.

E. cloacae = format: cell-based, Enterobacter cloacae; details: E. cloacae NCTC 11582; upper value of MIC reading
Experimental: as §2

K. pneumoniae = format: cell-based, Klebsiella pneumoniae; details: K. pneumoniae 327; upper value of MIC reading
Experimental: as §2

MRSA = format: cell-based, methicillin-resistant Staphylococcus aureus; details: for MIC: upper value of MIC reading, in µg/mL; for MRSA MIC range: panel of ten MRSA strains (clinical isolates)
Procedure, shortened: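 Agar dilution MIC on Mueller Hinton agar, multipoint inoculator delivering 10^4 colony forming units per spot. MRSA values are ranges across ten clinical MRSA strains; S. aureus NCTC 6571 as reference strain.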

B. bronchiseptica = format: cell-based; details: B. bronchiseptica NCTC 8344; upper value of MIC reading
Procedure, shortened: as §1

S. aboni = format: cell-based; details: S. aboni NCTC 6017; upper value of MIC reading
Procedure, shortened: as §1

S. haemolyticus = format: cell-based; details: S. haemolyticus Isolate 1; upper value of MIC reading
Procedure, shortened: as §1

S. maltophilia = format: cell-based; details: S. maltophilia NCTC 10257; upper value of MIC reading
Procedure, shortened: as §1

E. faecalis = format: cell-based; details: upper value of MIC reading
Procedure, shortened: as §1

S. epidemisis = format: cell-based, Staphylococcus epidermidis; details: upper value of MIC reading
Procedure, shortened: as §1

S. marcesens = format: cell-based, Serratia marcescens; details: S. marcesens 4444; upper value of MIC reading
Experimental: as §2

E. faecium = format: cell-based, Enterococcus faecium; details: upper value of MIC reading
Procedure, shortened: as §1

Structure (SMILES) | MIC (S. aureus; S. aureus Cowan 1) | MIC (S. aureus; S. aureus NCTC 6571) | MIC (S. aureus; S. aureus NCTC 10788) | MIC (P. auriginosa) | MIC (E. cloacae) | MIC (K. pneumoniae) | MIC (MRSA; MRSA Isolate 1) | MIC (MRSA; MRSA Isolate 2) | MIC (MRSA; MRSA Isolate 3) | MIC (MRSA; MRSA Isolate 4) | MIC (MRSA; MRSA Isolate 5) | MIC (MRSA; MRSA Isolate 6) | MIC (MRSA; MRSA Isolate 7) | MIC (MRSA; MRSA Isolate 8) | MIC (MRSA; MRSA Isolate 9) | MIC (MRSA; MRSA Isolate 10) | MIC (S. aboni) | MIC (S. maltophilia) | MIC (E. faecalis; E. faecalis Isolate 5) | MIC (S. epidemisis; S. epidemisis Isolate 1) | further results
NC(=NN=Cc1c(O)ccc2ccccc12)c1cccnc1 [Compound 3PYdb] | 256 µg/mL (≈ 882 µM) | 256 µg/mL (≈ 882 µM) | 256 µg/mL (≈ 882 µM) | 256 µg/mL (≈ 882 µM) | 256 µg/mL (≈ 882 µM) | 256 µg/mL (≈ 882 µM) | 256 | 256 | 256 | 256 | 256 | 256 | 256 | 256 | 256 | 256 | 32 µg/mL (≈ 110 µM) | 266 µg/mL (≈ 916 µM) | 256 µg/mL (≈ 882 µM) | 256 µg/mL (≈ 882 µM) | MRSA MIC range (MRSA): 128 to 256 µg/mL; MIC (B. bronchiseptica): 256 µg/mL (≈ 882 µM); MIC (S. haemolyticus): 256 µg/mL (≈ 882 µM); MIC (E. faecalis; E. faecalis Isolate 2): 256 µg/mL (≈ 882 µM); MIC (S. epidemisis; S. epidemisis NCTC 11047): 256 µg/mL (≈ 882 µM)
Oc1cc(O)c(C=NNc2ccccn2)c(O)c1 [HDcd] | 256 µg/mL (≈ 1040 µM) | 256 µg/mL (≈ 1040 µM) | 256 µg/mL (≈ 1040 µM) | 256 µg/mL (≈ 1040 µM) | 256 µg/mL (≈ 1040 µM) | 256 µg/mL (≈ 1040 µM) | 256 | 256 | 256 | 256 | 256 | 256 | 256 | 256 | 256 | 256 | 128 µg/mL (≈ 522 µM) | 128 µg/mL (≈ 522 µM) | 128 µg/mL (≈ 522 µM) | 128 µg/mL (≈ 522 µM) | MIC (S. marcesens): 256 µg/mL (≈ 1040 µM); MIC (E. faecium; E. faecium ACTCC 10541): 256 µg/mL (≈ 1040 µM); MIC (E. faecium; E. faecium NCTC 7171): 256 µg/mL (≈ 1040 µM); MRSA MIC range (MRSA): 128 to 256 µg/mL; MIC (B. bronchiseptica): 256 µg/mL (≈ 1040 µM); MIC (S. haemolyticus): 128 µg/mL (≈ 522 µM); MIC (E. faecalis; E. faecalis EBH1): 256 µg/mL (≈ 1040 µM); MIC (E. faecalis; E. faecalis Isolate 1): 128 µg/mL (≈ 522 µM); MIC (E. faecalis; E. faecalis Isolate 2): 128 µg/mL (≈ 522 µM); MIC (E. faecalis; E. faecalis Isolate 3): 128 µg/mL (≈ 522 µM); MIC (E. faecalis; E. faecalis Isolate 4): 256 µg/mL (≈ 1040 µM); MIC (E. faecalis; E. faecalis NCTC 5957): 256 µg/mL (≈ 1040 µM); MIC (S. epidemisis; S. epidemisis NCTC 11047): 128 µg/mL (≈ 522 µM)
O=[N+]([O-])c1cc(Br)cc(C=NNc2ccccn2)c1O [HDcl] | 128 µg/mL (≈ 380 µM) | 128 µg/mL (≈ 380 µM) | 128 µg/mL (≈ 380 µM) | 128 µg/mL (≈ 380 µM) | 256 µg/mL (≈ 759 µM) | 128 µg/mL (≈ 380 µM) | 128 | 128 | 128 | 128 | 128 | 128 | 128 | 128 | 128 | 128 | 128 µg/mL (≈ 380 µM) | 128 µg/mL (≈ 380 µM) | 128 µg/mL (≈ 380 µM) | 128 µg/mL (≈ 380 µM) | MIC (S. marcesens): 256 µg/mL (≈ 759 µM); MIC (E. faecium; E. faecium ACTCC 10541): 128 µg/mL (≈ 380 µM); MIC (E. faecium; E. faecium NCTC 7171): 128 µg/mL (≈ 380 µM); MRSA MIC range (MRSA): 64 to 128 µg/mL; MIC (B. bronchiseptica): 128 µg/mL (≈ 380 µM); MIC (S. haemolyticus): 128 µg/mL (≈ 380 µM); MIC (E. faecalis; E. faecalis EBH1): 128 µg/mL (≈ 380 µM); MIC (E. faecalis; E. faecalis Isolate 1): 128 µg/mL (≈ 380 µM); MIC (E. faecalis; E. faecalis Isolate 2): 32 µg/mL (≈ 94.9 µM); MIC (E. faecalis; E. faecalis Isolate 3): 16 µg/mL (≈ 47.5 µM); MIC (E. faecalis; E. faecalis Isolate 4): 128 µg/mL (≈ 380 µM); MIC (E. faecalis; E. faecalis NCTC 5957): 128 µg/mL (≈ 380 µM); MIC (S. epidemisis; S. epidemisis NCTC 11047): 64 µg/mL (≈ 190 µM)
NC(=NN=Cc1ccc(O)c(O)c1)c1ccc2ccccc2n1 [QNca] | 128 µg/mL (≈ 418 µM) | 128 µg/mL (≈ 418 µM) | 128 µg/mL (≈ 418 µM) | 256 µg/mL (≈ 836 µM) | 32 µg/mL (≈ 104 µM) | 256 µg/mL (≈ 836 µM) | 128 | 128 | 128 | 128 | 128 | 128 | 128 | 128 | 128 | 128 | 256 µg/mL (≈ 836 µM) | 256 µg/mL (≈ 836 µM) | 256 µg/mL (≈ 836 µM) | 64 µg/mL (≈ 209 µM) | MIC (S. marcesens): 256 µg/mL (≈ 836 µM); MIC (E. faecium; E. faecium ACTCC 10541): 256 µg/mL (≈ 836 µM); MIC (E. faecium; E. faecium NCTC 7171): 256 µg/mL (≈ 836 µM); MRSA MIC range (MRSA): 64 to 128 µg/mL; MIC (S. haemolyticus): 128 µg/mL (≈ 418 µM); MIC (E. faecalis; E. faecalis EBH1): 256 µg/mL (≈ 836 µM); MIC (E. faecalis; E. faecalis Isolate 1): 256 µg/mL (≈ 836 µM); MIC (E. faecalis; E. faecalis Isolate 2): 256 µg/mL (≈ 836 µM); MIC (E. faecalis; E. faecalis Isolate 3): 256 µg/mL (≈ 836 µM); MIC (E. faecalis; E. faecalis Isolate 4): 256 µg/mL (≈ 836 µM); MIC (E. faecalis; E. faecalis NCTC 5957): 256 µg/mL (≈ 836 µM); MIC (S. epidemisis; S. epidemisis NCTC 11047): 64 µg/mL (≈ 209 µM)
O=Cc1cc([N+](=O)[O-])ccc1O [cj] | 16 µg/mL (≈ 95.7 µM) | 4 µg/mL (≈ 23.9 µM) | 2 µg/mL (≈ 12 µM) | 256 µg/mL (≈ 1530 µM) | 256 µg/mL (≈ 1530 µM) | 256 µg/mL (≈ 1530 µM) | 2 | 4 | 2 | 2 | 2 | 4 | 4 | 4 | 4 | 4 | 1 µg/mL (≈ 5.98 µM) | 256 µg/mL (≈ 1530 µM) | 256 µg/mL (≈ 1530 µM) | 2 µg/mL (≈ 12 µM) | MIC (B. bronchiseptica): 256 µg/mL (≈ 1530 µM); MIC (E. faecalis; E. faecalis Isolate 1): 256 µg/mL (≈ 1530 µM); MIC (S. epidemisis; S. epidemisis NCTC 11047): 2 µg/mL (≈ 12 µM)
